Measurements as given in publication PMC5554537 (Frontiers in Pharmacology, 2017).
Like-named read-outs stand apart in the source and are kept apart here.

Experiments:
[1] = Metabolite profile in plasma, liver and HT29 tumor after i.p. SN30000; assay type: in vivo, NIH-III mice; conditions: SN30000 186 mg/kg i.p.; for Metabolite/SN30000 peak area, Tumor: HT29 tumor
Method: Mouse plasma and tissue homogenates, prepared from tissue samples in two volumes of ice-cold PBS using a TissueLyser II (Qiagen Sciences, Germantown, MD, United States) with 30 Hz oscillation frequency for 1 min, were processed by precipitating proteins with 3 vol MeOH and centrifuging (13,000 g, 4°C for 10 min). Supernatants were diluted into 3 vol water and analyzed with an Agilent model 6460 LC-MS/MS with an in-line photodiode array absorbance detector. Chromatographic separation was performed on a Zorbax Eclipse C18 column (100 mm × 3.0 mm, 1.8 μm; Agilent Technologies) at 35°C with a flow rate of 0.6 mL/min, with positive or negative mode electrospray ionization. The mobile phase was a gradient constructed using 80% MeCN/20% water/0.1% formic acid v/v/v (A) and 0.1% formic acid in water (B) from 10% A to 80% A with a total run time of […]. The gradient profile was: 0–4 min, 10% A; 4–11 min linear increase to 60% A; 11–12 min to 80% A; held for 1 min, returned to 10% A over 0.5 min and held for 2 min before the next sample injection. Absorbance spectra were collected from 230 to 600 nm with a reference wavelength of 550 nm. The mass/charge (m/z) ratio was scanned from 100 to 800 with a fragmentor voltage of 120 V. MS^2 with various collision energies was used for further characterization of some metabolites.
Metabolites were investigated in plasma, liver and HT29 tumors following i.p. dosing of female NIH-III mice with SN30000 at 186 mg/kg, which represents its previously determined MTD for this route and mouse strain ([Gu et al., 2014]). Representative chromatograms are shown in Supplementary Figure 1. A total of 19 metabolites (M1–M19) were provisionally identified (Figure 1 and Table 1). Assignments were confirmed by comparison with synthetic standards in the case of the 1-oxide M14 and nor-oxide M13, which have previously been reported as murine metabolites of SN30000 ([Wang et al., 2012]) and for M15 which is known to be the major photodegradation product of SN30000 ([Gu et al., 2014]). In addition, the previously unreported metabolite M18, which is the main plasma metabolite at late times, was isolated from pooled plasma of mice dosed with M14 in sufficient quantity for characterization by NMR (Supplementary Data). This identified M18 as an oxidation product of M14 with an alkanoic acid side-chain (Figure 1), an assignment that was confirmed by synthesis of the authentic compound which was identical by HPLC retention time, absorbance spectrum, elemental analysis, mass spectrum and NMR spectroscopy.

[2] = in vivo; conditions: NIH-III nude, mouse, in vivo
Method: SN30000, M14 and M18 dosing solutions were prepared fresh in normal saline, filtered through 0.45 μm Acrodisc filters (Pall Life Sciences, Port Washington, NY, United States), protected from light in amber vials, and used within 3 h. Doses are expressed as mg of free base equivalent for SN30000 and M14, and free acid in the case of M18. […] Blood samples were collected from mice at various times by cardiac puncture, seconds after cervical dislocation, into ice-cold tubes containing K2EDTA. These were placed on ice immediately after collection and centrifuged (3,000 g, 3 min) within 10 min to harvest plasma. Plasma and tissues were rapidly frozen in liquid nitrogen before storage at -80°C for subsequent bioanalysis.
(§1) M18 was quantified by absorbance detection with reference to an external standard calibration curve.
Concentration-time data were analyzed by non-compartmental analysis using Phoenix WinNonlin (ver 6.4, Build 6.4.0768 Pharsight, United States); all AUC values were extrapolated to infinity using the linear trapezoidal rule. […] Model fits were further assessed by visual inspection of the residuals and predicted PK.

[3] = in vivo; conditions: NIH-III, mouse, in vivo, ip, 186 mg/kg
Method: as §1
(§2) Concentration-time data were analyzed by non-compartmental analysis using Phoenix WinNonlin (ver 6.4, Build 6.4.0768 Pharsight, United States); all AUC values were extrapolated to infinity using the linear trapezoidal rule.
(§3) SN30000, M14 and M13 were quantified by LC-MS/MS using stable isotope internal standards, while M18 was quantified by absorbance detection using external standard calibration curves.

[4] = test system: NIH-III mice; test: Core body (rectal) temperature and acute clinical signs after dosing; assay type: in vivo; conditions: for Initial rate of temperature loss (rectum): i.p. SN30000 186 mg/kg, TPZ 31.7 mg/kg, M14 135 mg/kg
Method: Supplementary Figure 3. Initial rates of core temperature decrease in (untreated) NIH-III mice post- mortem: co mparison with initial temperature change ante- mortem following treatment with benzotriazine oxides at their MTD. Temperature was measured in rectu m and liver over 15 min. Initial rates of temperature loss (°C/min) were: post- mortem (rectum):
(rectum) 0.33. The rectal temperature loss following dosing with M14 (135 mg/kg) was 0.6 °C/min (not shown for clarity). The drug-induced changes are redrawn from Fig. 4.

[5] = in vivo; conditions: NIH-III, mouse, in vivo, ip
Method: SN30000, M14 and M18 dosing solutions were prepared fresh in normal saline, filtered through 0.45 μm Acrodisc filters (Pall Life Sciences, Port Washington, NY, United States), protected from light in amber vials, and used within 3 h. Doses are expressed as mg of free base equivalent for SN30000 and M14, and free acid in the case of M18. […] For evaluation of acute toxicity, mice were observed continuously for 3 h after dosing, and their activity rated on a lethargy score from 0 representing no change in activity to 5 representing animals that were moribund and required culling. For MTD studies, the animals were checked daily for clinical signs of toxicity and body weight change for 2 weeks. In some studies rectal temperature changes after dosing were measured using a BAT-12 digital microprobe thermometer (Physitemp Instruments, Clifton, NJ, United States) at the times specified in the figures. Blood samples were collected from mice at various times by cardiac puncture, seconds after cervical dislocation, into ice-cold tubes containing K2EDTA. These were placed on ice immediately after collection and centrifuged (3,000 g, 3 min) within 10 min to harvest plasma. Plasma and tissues were rapidly frozen in liquid nitrogen before storage at -80°C for subsequent bioanalysis.
(§4) Concentration-time data were analyzed by non-compartmental analysis using Phoenix WinNonlin (ver 6.4, Build 6.4.0768 Pharsight, United States); all AUC values were extrapolated to infinity using the linear trapezoidal rule. A compartmental model for plasma PK after dosing with SN30000 or M14 was fitted using Phoenix NLME v1.3 with random effects on the metabolite volumes of distribution, and temperature effects based on the observed body temperature at the last measurement time. Temperature effects were added or removed until there was no significant change in the log likelihood. Model fits were further assessed by visual inspection of the residuals and predicted PK.

[6] = Plasma, liver and brain PK after i.p. dosing with M14; assay type: in vivo; conditions: i.p. M14 135 mg/kg; for Cmax / half-life: NIH-III nude, mouse, in vivo, ip, 135 mg/kg; for Cmax: read-out: Cmax; for half-life: read-out: Terminal T1/2
Method: as §4

[7] = i.p. SN30000 186 mg/kg
Method: as §1, §2, §3

[8] = test system: HCT116 cells; test: Antiproliferative potency, 4 h exposure, sulforhodamine B; assay type: cell-based, human; conditions: Homo sapiens, HCT-116, 4 h, HCT116, 4 h exposure
Method: Antiproliferative potency of SN30000 and its major metabolites following 4 h exposure of HCT116 cells under aerobic or anoxic conditions. […]
a HCT116 cells, originally from ATCC, were authenticated by short tandem repeat profiling and confir med mycoplasma-free by PCR/ELISA assay . Cells were passaged in Alpha MEM with 5% foetal bovine serum without antibiotics. In vitro cytotoxicity of SN30000 and metabolites was measured as the inhibition of cell proliferation as described previously (Gu et al., 2009). Briefly, cells were exposed to compounds for 4 h under aerobic (20% O2) or anoxic (Bactron anaerobic chamber) conditions and then grown in an aerobic 5% CO 2 incubator for 5 d before staining with sulforhodamine B. IC50 values were deter mined by interpolation (nonlinear regression to the standard Hill equation) as the drug concentration reducing staining to 50% of controls on the same plate. b Values are mean ± SEM for the numb er of independent experiments shown in parentheses.

[9] = i.p. SN30000 186 mg/kg, plasma, non-tumour-bearing mice
[10] = Elimination half-life, i.p. SN30000 186 mg/kg, all tissues except tumors
[11] = Terminal T1/2, i.p. SN30000 186 mg/kg, HT29 tumour, tumour-bearing mice
[12] = Terminal T1/2, i.p. SN30000 186 mg/kg, brain, non-tumour-bearing mice
[13] = Terminal T1/2, i.p. SN30000 186 mg/kg, liver, HT29 tumour-bearing mice
[14] = Terminal T1/2, i.p. SN30000 186 mg/kg, liver, non-tumour-bearing mice
[15] = Terminal T1/2, i.p. SN30000 186 mg/kg, plasma, HT29 tumour-bearing mice
[16] = Terminal T1/2, i.p. SN30000 186 mg/kg, plasma, non-tumour-bearing mice
[17] = HT29 tumour, tumour-bearing mice
[18] = liver, HT29 tumour-bearing mice
[19] = plasma, HT29 tumour-bearing mice
[20] = plasma, non-tumour-bearing mice

SMILES: [O-][n+]1nc(CCCN2CCOCC2)nc2cc3c(cc21)CCC3 [M14]
- Metabolite/SN30000 peak area, Tumor [1]: 0.41
- Metabolite/SN30000 peak area, Liver [1]: 5.18
- Metabolite/SN30000 peak area, Plasma [1]: 0.35
- AUC ([2]; iv, 1.86 mg/kg): 0.042 µM·h
- half-life ([2]; iv, 1.86 mg/kg): 12.3 min
- AUC ([2]; iv, 18.6 mg/kg): 0.6 µM·h
- half-life ([2]; iv, 18.6 mg/kg): 28.5 min
- AUC ([2]; iv, 78.3 mg/kg): 11.6 µM·h
- half-life ([2]; iv, 78.3 mg/kg): 31.5 min
- Tmax [3]: ≤ 5 min
- Cmax [3, 9]: 36.1 ± 5.5 µM
- half-life [3, 10]: ~30 min
- half-life [3, 11]: 94.8 min
- half-life [3, 12]: 32.1 min
- half-life [3, 13]: 42.7 min
- half-life [3, 14]: 40.5 min
- half-life [3, 15]: 40.6 min
- half-life [3, 16]: 37.8 min
- Initial rate of temperature loss (rectum) [4]: 0.6 °C/min
- AUC ([5]; 1.86 mg/kg): 0.02 µM·h
- Cmax ([5]; 1.86 mg/kg): 0.053 µM
- half-life ([5]; 1.86 mg/kg): 29.5 min
- AUC ([5]; 18.6 mg/kg): 0.38 µM·h
- Cmax ([5]; 18.6 mg/kg): 1.11 µM
- half-life ([5]; 18.6 mg/kg): 32.5 min
- AUC ([5]; 78.3 mg/kg): 7.52 µM·h
- Cmax ([5]; 78.3 mg/kg): 13.3 µM
- half-life ([5]; 78.3 mg/kg): 20.1 min
- AUC ([5]; 92.8 mg/kg): 10.8 µM·h
- Cmax ([5]; 92.8 mg/kg): 16.8 µM
- half-life ([5]; 92.8 mg/kg): 22.9 min
- AUC ([5]; 186 mg/kg): 24.6 µM·h
- Cmax ([5]; 186 mg/kg): 23 µM
- half-life ([5]; 186 mg/kg): 58.1 min
- Cmax ([6]; brain): 260 ± 29 µM
- half-life ([6]; brain): 20.1 min
- Cmax ([6]; liver): 319 ± 46.1 µM
- half-life ([6]; liver): 25.1 min
- Cmax ([6]; plasma): 95.6 ± 9.8 µM
- half-life ([6]; plasma): 30.8 min
- AUC ([6]; brain): 108.3 µmol·h/kg
- AUC ([6]; liver): 131.1 µmol·h/kg
- AUC ([6]; plasma): 36.6 µmol·h/kg
- Concentrations in brain compared with plasma [7]: higher in brain than plasma
- AUC (extrapolated to infinity) [7, 17]: 136 µmol·h/kg
- Cmax [7, 17]: 46.0 ± 3.9 µmol/kg
- AUC (extrapolated to infinity) ([7]; brain, non-tumour-bearing mice): 126 µmol·h/kg
- Cmax ([7]; brain, non-tumour-bearing mice): 162 ± 0 µmol/kg
- AUC (extrapolated to infinity) [7, 18]: 305 µmol·h/kg
- Cmax [7, 18]: 371 ± 26 µmol/kg
- AUC (extrapolated to infinity) ([7]; liver, non-tumour-bearing mice): 350 µmol·h/kg
- Cmax ([7]; liver, non-tumour-bearing mice): 469 ± 27 µmol/kg
- AUC (extrapolated to infinity) [7, 19]: 27. 6 µmol. hr/kg
- AUC (extrapolated to infinity) [7, 20]: 26.4 µmol·h/kg
- IC50 ([8]; aerobic (20% O2), read-out: IC50): 600 ± 60 µM
- IC50 ([8]; anoxic, read-out: IC50): 900 ± 100 µM

SMILES: [O-][n+]1nc(CCCN2CCOCC2)[n+]([O-])c2cc3c(cc21)CCC3 [SN30000, 3-(3-Morpholinopropyl)-7,8-dihydro-6H-indeno[5,6-e][1,2,4]triazine 1,4-dioxide]
- Metabolite/SN30000 peak area, Tumor [1]: 1.00
- Metabolite/SN30000 peak area, Liver [1]: 1.00
- Metabolite/SN30000 peak area, Plasma [1]: 1.00
- clearance ([2]; 78 mg/kg): 5.04 L/h/kg
- clearance ([2]; iv): 5 to 10 L/h/kg
- AUC ([2]; iv, 1.86 mg/kg): 0.53 µM·h
- Cmax ([2]; iv, 1.86 mg/kg): 1.86 ± 0.13 µM
- Vd ([2]; iv, 1.86 mg/kg): 1.52 L/kg
- clearance ([2]; iv, 1.86 mg/kg): 10.6 L/h/kg
- half-life ([2]; iv, 1.86 mg/kg): 8.03 min
- AUC ([2]; iv, 18.6 mg/kg): 8.1 µM·h
- Cmax ([2]; iv, 18.6 mg/kg): 25.2 ± 0.27 µM
- Vd ([2]; iv, 18.6 mg/kg): 1.29 L/kg
- clearance ([2]; iv, 18.6 mg/kg): 6.94 L/h/kg
- half-life ([2]; iv, 18.6 mg/kg): 27.6 min
- AUC ([2]; iv, 78.3 mg/kg): 47 µM·h
- Cmax ([2]; iv, 78.3 mg/kg): 81.9 ± 2.71 µM
- Vd ([2]; iv, 78.3 mg/kg): 2.24 L/kg
- clearance ([2]; iv, 78.3 mg/kg): 5.04 L/h/kg
- half-life ([2]; iv, 78.3 mg/kg): 23.9 min
- Tmax [3]: ≤ 5 min
- Cmax ([3]; i.p. SN30000 186 mg/kg, plasma, HT29 tumour-bearing mice): 217 ± 18 µM
- Cmax [3, 9]: 210 ± 9 µM
- half-life [3, 10]: ~30 min
- half-life [3, 11]: 36.2 min
- half-life [3, 12]: 26.4 min
- half-life [3, 13]: 35.7 min
- half-life [3, 14]: 44.3 min
- half-life [3, 15]: 33.9 min
- half-life [3, 16]: 32.7 min
- Drop in rectal temperature at nadir, below controls ([4]; i.p. MTD dose (186 mg/kg)): ~8 °C
- Time of temperature nadir ([4]; i.p. MTD dose (186 mg/kg)): approximately 30 min
- Initial rate of temperature loss (rectum) [4]: 0.52 °C/min
- bioavailability [5]: ~30%
- AUC ([5]; 1.86 mg/kg): 0.17 µM·h
- Cmax ([5]; 1.86 mg/kg): 0.59 µM
- half-life ([5]; 1.86 mg/kg): 20.8 min
- AUC ([5]; 18.6 mg/kg): 2.1 µM·h
- Cmax ([5]; 18.6 mg/kg): 6.8 µM
- half-life ([5]; 18.6 mg/kg): 25 min
- bioavailability ([5]; 78 mg/kg): ~70%
- AUC ([5]; 78.3 mg/kg): 31.5 µM·h
- Cmax ([5]; 78.3 mg/kg): 60.8 µM
- half-life ([5]; 78.3 mg/kg): 16.1 min
- AUC ([5]; 92.8 mg/kg): 49.2 µM·h
- Cmax ([5]; 92.8 mg/kg): 77.9 µM
- half-life ([5]; 92.8 mg/kg): 19.7 min
- AUC ([5]; 186 mg/kg): 155 µM·h
- Cmax ([5]; 186 mg/kg): 229 µM
- half-life ([5]; 186 mg/kg): 42.5 min
- AUC (extrapolated to infinity) [7, 17]: 111 µmol·h/kg
- Cmax [7, 17]: 69.9 ± 12.1 µmol/kg
- AUC (extrapolated to infinity) ([7]; brain, non-tumour-bearing mice): 158 µmol·h/kg
- Cmax ([7]; brain, non-tumour-bearing mice): 217 ± 12 µmol/kg
- AUC (extrapolated to infinity) [7, 18]: 164 µmol·h/kg
- Cmax [7, 18]: 172 ± 8 µmol/kg
- AUC (extrapolated to infinity) ([7]; liver, non-tumour-bearing mice): 147 µmol·h/kg
- Cmax ([7]; liver, non-tumour-bearing mice): 164 ± 38 µmol/kg
- AUC (extrapolated to infinity) [7, 19]: 159 µmol·h/kg
- AUC (extrapolated to infinity) [7, 20]: 156 µmol·h/kg
- IC50 ([8]; aerobic (20% O2)): 148 ± 20 µM
- IC50 ([8]; anoxic): 1.7 ± 0.4 µM
